According to ChEMBL document CHEMBL2074132, “Functional characterization of the hepatic sodium-dependent taurocholate transporter stably transfected into an immortalized liver-derived cell line and V79 fibroblasts” (Eur J Cell Biol, 1996):

Columns and labels:
Format in all cases: functional, cell-based
[1] = target: T1, Hepatic sodium/bile acid cotransporter (Rattus norvegicus, UniProt P26435); assay: TP_TRANSPORTER: uptake in Ntcp-expressing HPCT-1E3 cells
T1 sequence (P26435 whole entry): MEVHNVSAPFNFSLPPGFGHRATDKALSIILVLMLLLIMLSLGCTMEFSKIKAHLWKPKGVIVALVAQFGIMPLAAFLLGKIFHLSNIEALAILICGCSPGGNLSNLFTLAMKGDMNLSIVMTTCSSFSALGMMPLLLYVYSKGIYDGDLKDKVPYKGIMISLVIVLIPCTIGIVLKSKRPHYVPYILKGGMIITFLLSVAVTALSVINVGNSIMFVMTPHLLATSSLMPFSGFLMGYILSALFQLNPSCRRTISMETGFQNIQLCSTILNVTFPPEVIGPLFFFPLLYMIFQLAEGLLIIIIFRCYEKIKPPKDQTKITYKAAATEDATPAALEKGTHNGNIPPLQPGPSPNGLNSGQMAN

[2] = target: T1, Hepatic sodium/bile acid cotransporter; assay: TP_TRANSPORTER: inhibition of Taurocholate uptake (Taurocholate: 10 uM, GC: 100 uM) in Ntcp-expressing HPCT-1E3 cells; conditions: hpct-1e3, 100 µM
[3] = target: T1, Hepatic sodium/bile acid cotransporter; assay: TP_TRANSPORTER: inhibition of Taurocholate uptake (Taurocholate: 10 uM, Oligomycin: 0.01mg/mL) in Ntcp-expressing HPCT-1E3 cells

| Activity [1] | SMILES | Activity [2] | Activity [3] |
| --- | --- | --- | --- |
| is not a substrate [-] | CCCCNc1cc(C(=O)O)cc(S(N)(=O)=O)c1Oc1ccccc1 [BUMETANIDE] | – | – |
| is not a substrate [-] | C[C@H](CCC(=O)NCC(=O)O)[C@H]1CC[C@H]2[C@@H]3[C@H](O)C[C@@H]4C[C@H](O)CC[C@]4(C)[C@H]3C[C@H](O)[C@]12C [GLYCOCHOLIC ACID] | inhibitor [(at a rough estimate) 60 % of control] | – |
| – | CC[C@H]1/C=C/C=C/C[C@@H](C)[C@H](O)[C@@](C)(O)C(=O)[C@@H](C)[C@H](O)[C@@H](C)C(=O)[C@@H](C)[C@H](O)[C@@H](C)/C=C/C(=O)O[C@@H]2[C@H](C)[C@H](CC1)O[C@]1(CC[C@H](C)[C@H](C[C@@H](C)O)O1)[C@H]2C [OLIGOMYCIN] | – | inhibitor [(at a rough estimate) 10 % of control] |
